Test results reported in US20080027088A1, “Imidazole-Based Hmg-Coa Reductase Inhibitors” (Warner-Lambert Company, LLC, priority 2004, published 2008).

Experiments:
Format in all cases: in vivo
[1] = system: ApoE KO mice fed a Western diet; experiment: Atherosclerotic lesion and macrophage area in aortic root and brachiocephalic artery, 12 weeks
Procedure: For histological analysis, the mice were perfused and fixed in Zinc-Tris fixative. Paraffin embedded sections were stained with Masson's Trichrome. Intimal macrophages were immunohistochemically stained using MAC-2 antibody (clone M3/38 from Cedarlane Laboratories Limited) counterstained with Verhoeff elastic stain. T-lymphocytes were immunohistochemically stained with rat CD3 antibody (clone CD3-12, Serotec). Lesion thickness and area occupied by macrophages were determined using Image Pro Plus software.
FIGS. 11 & 12. Formation of atherosclerotic lesions in aortic root and brachiocephalic artery. ApoE KO mice fed with Western-diet in the absence or presence of myriocin, ApoE KO mice and C57BI/6J mice fed with normal chow were sacrificed and fixed with Zinc-Tris. The cross-section of brachiocephalic artery was stained by Masson's Trichrome and MAC-2 antibody counterstained with Verhoeff elastic stain. Atherosclerotic lesion (black bars) and macrophage size (gray bars) in brachiocephalic artery and in aortic root were quantified by using Image Pro Plus. The values reported are mean±SEM (n=5, *P<0.01, WD vs WD plus myriocin; #P<0.01, normal vs WD plus myriocin). Bar represents 100 μm.

[2] = system: ApoE KO mice fed a Western diet; experiment: Plasma SM/PC ratio (HPLC) and ceramide (LC/MS/MS), 12 weeks; conditions: 0.3 mg/kg/day
Text: Analysis of Sphingolipids and Phospholipids by LC/MS and HPLC-Total lipids were extracted by the modified method of Bligh-Dyer extraction (E. G. Bligh and W. J. Dyer, Can. J. Med. Sci. 1959;37:911-917; and D. K. Perry, A. Bielawska and Y. A. Hannun, Methods Enzymol. 2000;312:22-31). A Micromass (Waters Corp., Milford, Mass.) Quattro Ultima tandem quadrupole mass spectrometer with a standard Z-sprayTM ion source, set to electrospray positive ionization mode, with MassLynxTM version 3.5 operating software, was used for all quantitative determinations. Source conditions were typically as follows: capillary 3.5 kV, source temperature 110 degrees C., and desolvation temperature 325 degrees C. […] The following ion transitions were used for quantification: sphingomyelin (704→184 m/z), sphinganine (302→284 m/z), ceramide (566→264 m/z) and psychosine (462→282 m/z) as an internal standard. […] For the quantitative method, the analytical column was a Phenomenex (Torrance, Calif.) Polar-RP (2.0×150 mm, 4 μm) with a […] […] Lipid extracts were analyzed by HPLC and evaporative light scattering detector to determine plasma sphingomyelin and phosphatidylcholine (PC) levels (R. Homan and M.K. Anderson, J. Chromatogr. B. Biomed. Sci. Appl. 1998;708:21-6). […] Plasma concentrations of SM and PC were determined, and SM/PC ratio (FIG. 13A) was calculated using HPLC. […]

[3] = system: ApoE KO mice fed a Western diet; experiment: Plasma serum amyloid A by ELISA, cuffed femoral artery study; conditions: 4 weeks
Procedure: Plasma lipids and serum amyloid A measurement—Mice were sacrificed by CO2 inhalation and blood was collected through cardiac puncture. Plasma concentrations of total cholesterol and triglyceride were determined enzymatically on a Cobas Mira Plus auto-analyzer using Cholesterol R1 and Triglycerides Reagent methods, respectively (Roche Diagnostics, Indiana, USA). Colormetric changes were measured at 500 nm. Lipoproteins were separated from mouse plasma by fast-protein liquid chromatography utilizing a Superose 6HR column. Cholesterol distribution among lipoproteins was determined by in-line post column analysis (K. A. Kieft, T. M. Bocan and B. R. Krause, J. Lipid Res. 1991; 32:859-66). Serum Amyloid A (SAA) protein in plasma was measured by ELISA according to the manufacturer's instructions (Biosource).
FIG. 5. Lesion Development in the Cuffed Femoral Artery of ApoE KO mice Fed a Western Diet. Mice were anesthetized and the right femoral artery was dissected from its surroundings. A nonconstrictive polyethylene cuff (Portex, 0.40-mm inner diameter, 0.80-mm outer diameter, and 1.5-mm length) was placed looselyaround the right femoral artery. […] Atherosclerotic lesion (black bar) and macrophage size (gray bar) in the femoral artery were quantified by using Image Pro Plus software (FIG. 5A). Plasma serum amyloid A levels were determined by colormetric ELISA (FIG. 5B). […]

CCCCCCC(=O)CCCCCC/C=C/C[C@@H](O)[C@H](O)[C@@](N)(CO)C(=O)O [myriocin]
decrease in lesion area, brachiocephalic artery ([1]; 0.3 mg/kg): 76% | decrease in macrophage area, brachiocephalic artery ([1]; 0.3 mg/kg): 74% | lesion area decreased, aortic root ([1]; 0.3 mg/kg): 44% | macrophage area decreased, aortic root ([1]; 0.3 mg/kg): 31% | necrotic core in lesions ([1]; myriocin-treated, Western diet-fed ApoE KO mice): did not develop necrotic core | plasma ceramide levels reduced [2]: 60% | effect on plasma SM/PC ratio ([2]; vs Western diet-fed group): did not affect | plasma serum amyloid A lowered [3]: 84%
